Experimental data: article PMC5428509, “Irreversible inhibition of BTK kinase by a novel highly selective inhibitor CHMFL-BTK-11 suppresses inflammatory response in rheumatoid arthritis model” (Scientific Reports, 2017)

Experiments:
Assay in all cases: biochemical
Parameters in all cases: KinomeScan competition binding panel (DiscoveRx), percent of control at 1 uM
Settings in all cases: read-out: Percent Control
PLK2 = PLK2 (Homo sapiens, UniProt Q9NYY3)
Summary of the method: (§1)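 KinomeScan technology used to profile binding across a panel of 456 kinases and mutants.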

EIF2AK1 = EIF2AK1 (Homo sapiens, UniProt Q9BQI3)
Summary of the method: as §1

PKN2 = PKN2 (Homo sapiens, UniProt Q16513)
Summary of the method: as §1

CAMK1G = CAMK1G (Homo sapiens, UniProt Q96NX5)
Summary of the method: as §1

CSNK1G1 = CSNK1G1 (Homo sapiens, UniProt Q9HCP0)
Summary of the method: as §1

EGFR(T790M) = EGFR(T790M) (Homo sapiens, UniProt P00533, T790M)
Summary of the method: as §1

p38-beta = molecular target: T1, p38-beta (Homo sapiens, UniProt Q15759)
T1 construct: gene MAPK11
Summary of the method: as §1

PIK3C2G = PIK3C2G (Homo sapiens, UniProt O75747)
Summary of the method: as §1

FLT3(D835Y) = FLT3(D835Y) (Homo sapiens, UniProt P36888, D835Y)
Summary of the method: as §1

HIPK4 = HIPK4 (Homo sapiens, UniProt Q8NE63)
Summary of the method: as §1

NDR2 = molecular target: T2, NDR2 (Homo sapiens, UniProt Q9Y2H1)
T2 construct: gene STK38L
Summary of the method: as §1

MET = MET (Homo sapiens, UniProt P08581)
Summary of the method: as §1

CDK2 = CDK2 (Homo sapiens, UniProt P24941)
Summary of the method: as §1

FGR = FGR (Homo sapiens, UniProt P09769)
Summary of the method: as §1

STK33 = STK33 (Homo sapiens, UniProt Q9BYT3)
Summary of the method: as §1

SRPK2 = SRPK2 (Homo sapiens, UniProt P78362)
Summary of the method: as §1

PKAC-alpha = molecular target: T3, PKAC-alpha (Homo sapiens, UniProt P17612)
T3 construct: gene PRKACA
Summary of the method: as §1

EPHA3 = EPHA3 (Homo sapiens, UniProt P29320)
Summary of the method: as §1

TAK1 = molecular target: T4, TAK1 (Homo sapiens, UniProt O43318)
T4 construct: gene MAP3K7
Summary of the method: as §1

MST3 = molecular target: T5, MST3 (Homo sapiens, UniProt Q9Y6E0)
T5 construct: gene STK24
Summary of the method: as §1

ABL1-phosphorylated = molecular target: T6, ABL1-phosphorylated (Homo sapiens, UniProt P00519)
T6 construct: phosphorylated
Summary of the method: as §1

SIK2 = SIK2 (Homo sapiens, UniProt Q9H0K1)
Summary of the method: as §1

BRK = molecular target: T7, BRK (Homo sapiens, UniProt Q13882)
T7 construct: gene PTK6
Summary of the method: as §1

BLK = BLK (Homo sapiens, UniProt P51451)
Summary of the method: as §1

CLK2 = CLK2 (Homo sapiens, UniProt P49760)
Summary of the method: as §1

Chain of CAMK1G (Q96NX5 whole entry): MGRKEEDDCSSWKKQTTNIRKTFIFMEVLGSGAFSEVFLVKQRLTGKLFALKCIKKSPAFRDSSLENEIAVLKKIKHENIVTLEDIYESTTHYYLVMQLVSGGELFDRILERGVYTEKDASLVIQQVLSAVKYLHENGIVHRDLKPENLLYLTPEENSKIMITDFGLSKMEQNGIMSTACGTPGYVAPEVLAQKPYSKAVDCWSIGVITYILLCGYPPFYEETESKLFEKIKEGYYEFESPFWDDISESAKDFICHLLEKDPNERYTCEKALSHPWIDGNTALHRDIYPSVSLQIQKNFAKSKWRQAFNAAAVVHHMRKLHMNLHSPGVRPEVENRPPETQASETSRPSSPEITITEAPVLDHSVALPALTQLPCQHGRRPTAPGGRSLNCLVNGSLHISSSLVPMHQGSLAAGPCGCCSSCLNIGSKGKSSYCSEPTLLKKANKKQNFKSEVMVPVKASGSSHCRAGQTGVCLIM
Chain of BLK (P51451 whole entry): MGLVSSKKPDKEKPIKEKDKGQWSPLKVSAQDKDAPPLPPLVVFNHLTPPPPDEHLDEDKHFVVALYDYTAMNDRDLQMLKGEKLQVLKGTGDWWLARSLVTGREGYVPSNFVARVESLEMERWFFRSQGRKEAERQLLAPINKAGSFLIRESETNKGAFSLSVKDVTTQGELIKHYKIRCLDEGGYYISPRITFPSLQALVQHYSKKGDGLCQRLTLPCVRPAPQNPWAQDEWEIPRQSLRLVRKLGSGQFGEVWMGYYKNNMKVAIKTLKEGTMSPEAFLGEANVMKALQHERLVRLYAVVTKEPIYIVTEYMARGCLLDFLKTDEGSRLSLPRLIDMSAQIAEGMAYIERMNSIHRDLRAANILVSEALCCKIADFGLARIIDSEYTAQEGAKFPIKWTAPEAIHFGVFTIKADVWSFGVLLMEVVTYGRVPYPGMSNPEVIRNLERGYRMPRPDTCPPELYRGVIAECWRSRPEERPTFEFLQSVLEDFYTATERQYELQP
Chain of HIPK4 (Q8NE63 whole entry): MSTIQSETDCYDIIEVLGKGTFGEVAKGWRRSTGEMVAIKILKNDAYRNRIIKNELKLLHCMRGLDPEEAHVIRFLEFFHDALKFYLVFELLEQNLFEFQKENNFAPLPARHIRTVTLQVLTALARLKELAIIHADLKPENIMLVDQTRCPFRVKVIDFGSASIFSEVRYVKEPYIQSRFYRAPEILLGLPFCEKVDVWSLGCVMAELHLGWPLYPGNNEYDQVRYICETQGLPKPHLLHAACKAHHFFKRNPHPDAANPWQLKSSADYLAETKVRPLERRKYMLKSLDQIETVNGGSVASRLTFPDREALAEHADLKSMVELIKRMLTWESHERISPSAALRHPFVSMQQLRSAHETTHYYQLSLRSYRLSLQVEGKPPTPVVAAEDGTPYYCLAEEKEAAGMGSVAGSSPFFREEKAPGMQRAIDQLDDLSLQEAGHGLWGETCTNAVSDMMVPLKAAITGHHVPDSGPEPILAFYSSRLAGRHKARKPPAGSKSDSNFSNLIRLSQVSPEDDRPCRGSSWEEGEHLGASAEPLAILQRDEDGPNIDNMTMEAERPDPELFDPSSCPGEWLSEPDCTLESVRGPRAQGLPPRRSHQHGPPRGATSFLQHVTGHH
Chain of EIF2AK1 (Q9BQI3 whole entry): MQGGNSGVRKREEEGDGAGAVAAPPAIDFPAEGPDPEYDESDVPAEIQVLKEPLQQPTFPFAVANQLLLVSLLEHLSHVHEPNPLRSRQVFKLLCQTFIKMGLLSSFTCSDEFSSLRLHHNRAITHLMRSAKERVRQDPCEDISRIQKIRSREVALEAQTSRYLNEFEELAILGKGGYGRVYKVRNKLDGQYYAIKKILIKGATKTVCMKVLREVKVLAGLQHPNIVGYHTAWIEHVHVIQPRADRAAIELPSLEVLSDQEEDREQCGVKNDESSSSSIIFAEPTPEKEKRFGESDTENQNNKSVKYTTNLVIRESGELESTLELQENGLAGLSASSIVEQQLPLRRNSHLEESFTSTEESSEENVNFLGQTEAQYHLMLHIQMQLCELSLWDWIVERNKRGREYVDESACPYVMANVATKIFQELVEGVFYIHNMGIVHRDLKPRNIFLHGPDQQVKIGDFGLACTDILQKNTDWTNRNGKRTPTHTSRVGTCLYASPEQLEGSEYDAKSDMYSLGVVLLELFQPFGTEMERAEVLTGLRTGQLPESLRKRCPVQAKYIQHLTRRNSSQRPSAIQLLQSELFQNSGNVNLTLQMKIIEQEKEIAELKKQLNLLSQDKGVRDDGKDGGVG
Chain of PIK3C2G (O75747 whole entry): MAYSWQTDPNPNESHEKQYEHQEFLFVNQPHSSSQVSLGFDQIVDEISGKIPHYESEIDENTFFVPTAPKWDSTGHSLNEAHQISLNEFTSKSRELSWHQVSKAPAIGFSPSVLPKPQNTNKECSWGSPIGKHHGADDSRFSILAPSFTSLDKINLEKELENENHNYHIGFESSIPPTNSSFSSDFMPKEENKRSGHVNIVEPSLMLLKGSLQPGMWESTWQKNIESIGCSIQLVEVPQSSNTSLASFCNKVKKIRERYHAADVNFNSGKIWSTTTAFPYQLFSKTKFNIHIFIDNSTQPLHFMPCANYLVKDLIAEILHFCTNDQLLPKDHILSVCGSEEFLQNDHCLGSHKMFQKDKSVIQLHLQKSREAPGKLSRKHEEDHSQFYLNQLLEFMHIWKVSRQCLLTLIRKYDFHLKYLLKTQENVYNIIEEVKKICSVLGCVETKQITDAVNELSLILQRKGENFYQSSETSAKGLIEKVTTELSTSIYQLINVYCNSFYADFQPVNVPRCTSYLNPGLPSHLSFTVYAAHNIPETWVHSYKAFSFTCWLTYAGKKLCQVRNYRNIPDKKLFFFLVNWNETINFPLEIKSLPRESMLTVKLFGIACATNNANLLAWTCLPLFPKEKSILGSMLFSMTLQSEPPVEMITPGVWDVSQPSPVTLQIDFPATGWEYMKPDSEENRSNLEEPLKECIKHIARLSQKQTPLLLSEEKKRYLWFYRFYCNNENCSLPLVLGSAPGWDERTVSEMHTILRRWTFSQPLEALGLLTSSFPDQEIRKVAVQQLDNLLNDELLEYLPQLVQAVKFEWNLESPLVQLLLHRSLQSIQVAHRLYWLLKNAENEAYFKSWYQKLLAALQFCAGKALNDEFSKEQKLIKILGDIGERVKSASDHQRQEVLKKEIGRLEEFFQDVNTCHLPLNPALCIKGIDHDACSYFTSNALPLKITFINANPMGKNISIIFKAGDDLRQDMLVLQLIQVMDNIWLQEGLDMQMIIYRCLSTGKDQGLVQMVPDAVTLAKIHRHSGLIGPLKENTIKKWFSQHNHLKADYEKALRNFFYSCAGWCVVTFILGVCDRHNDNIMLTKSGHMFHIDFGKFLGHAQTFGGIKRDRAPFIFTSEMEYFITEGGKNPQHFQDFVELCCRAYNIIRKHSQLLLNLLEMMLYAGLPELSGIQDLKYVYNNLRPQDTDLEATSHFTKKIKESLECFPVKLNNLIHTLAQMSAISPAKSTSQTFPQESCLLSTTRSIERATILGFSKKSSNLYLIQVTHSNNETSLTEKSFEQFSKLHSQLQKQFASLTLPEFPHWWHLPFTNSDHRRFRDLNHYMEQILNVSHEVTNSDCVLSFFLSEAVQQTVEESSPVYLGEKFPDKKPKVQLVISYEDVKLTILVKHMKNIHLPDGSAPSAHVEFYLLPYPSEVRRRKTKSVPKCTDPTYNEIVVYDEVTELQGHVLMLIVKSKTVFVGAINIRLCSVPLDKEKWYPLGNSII
Chain of FGR (P09769 whole entry): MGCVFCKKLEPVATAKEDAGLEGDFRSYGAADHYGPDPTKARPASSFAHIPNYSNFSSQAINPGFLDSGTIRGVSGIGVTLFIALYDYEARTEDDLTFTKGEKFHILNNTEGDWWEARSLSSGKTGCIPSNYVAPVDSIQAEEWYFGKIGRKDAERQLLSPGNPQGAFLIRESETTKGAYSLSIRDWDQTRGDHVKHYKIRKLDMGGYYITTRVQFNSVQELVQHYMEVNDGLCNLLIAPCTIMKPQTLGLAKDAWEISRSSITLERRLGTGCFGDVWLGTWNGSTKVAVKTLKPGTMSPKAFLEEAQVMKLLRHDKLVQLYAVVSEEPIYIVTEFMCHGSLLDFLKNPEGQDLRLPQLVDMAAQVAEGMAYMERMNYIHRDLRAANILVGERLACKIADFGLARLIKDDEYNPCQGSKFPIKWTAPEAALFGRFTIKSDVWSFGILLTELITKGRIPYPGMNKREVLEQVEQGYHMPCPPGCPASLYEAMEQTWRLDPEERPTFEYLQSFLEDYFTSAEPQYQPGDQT
Chain of SRPK2 (P78362 whole entry): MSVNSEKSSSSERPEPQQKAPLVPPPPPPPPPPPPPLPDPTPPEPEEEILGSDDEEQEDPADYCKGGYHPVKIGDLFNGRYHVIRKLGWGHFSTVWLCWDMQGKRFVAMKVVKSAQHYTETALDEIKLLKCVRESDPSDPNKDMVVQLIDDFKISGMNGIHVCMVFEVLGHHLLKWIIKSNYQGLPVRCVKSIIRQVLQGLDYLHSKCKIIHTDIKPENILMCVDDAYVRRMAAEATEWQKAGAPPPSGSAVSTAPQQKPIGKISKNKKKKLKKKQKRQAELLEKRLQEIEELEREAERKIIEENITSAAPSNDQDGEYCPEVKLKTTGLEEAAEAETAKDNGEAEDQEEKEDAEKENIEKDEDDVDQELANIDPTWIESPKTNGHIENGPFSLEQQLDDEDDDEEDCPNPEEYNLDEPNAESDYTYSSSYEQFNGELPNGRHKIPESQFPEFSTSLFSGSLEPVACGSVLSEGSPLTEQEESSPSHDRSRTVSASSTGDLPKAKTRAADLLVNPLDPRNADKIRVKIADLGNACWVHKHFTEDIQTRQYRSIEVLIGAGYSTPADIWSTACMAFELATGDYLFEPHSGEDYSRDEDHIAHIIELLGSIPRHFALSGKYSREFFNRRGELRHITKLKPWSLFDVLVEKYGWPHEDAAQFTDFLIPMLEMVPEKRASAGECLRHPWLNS

Question: Which results are given for `C=CC(=O)Nc1cc(-n2c(=O)ccc3cnc4ccc(-n5cccn5)cc4c32)ccc1C` [CHMFL-BTK-11]?
Answer: remaining binding at 1 µM (PLK2): 91%; remaining binding at 1 µM (EIF2AK1): 92%; remaining binding at 1 µM (PKN2): 100%; remaining binding at 1 µM (CAMK1G): 84%; remaining binding at 1 µM (CSNK1G1): 100%; remaining binding at 1 µM (EGFR(T790M)): 58%; remaining binding at 1 µM (p38-beta): 100%; remaining binding at 1 µM (PIK3C2G): 95%; remaining binding at 1 µM (FLT3(D835Y)): 100%; remaining binding at 1 µM (HIPK4): 94%; remaining binding at 1 µM (NDR2): 99%; remaining binding at 1 µM (MET): 100%; remaining binding at 1 µM (CDK2): 100%; remaining binding at 1 µM (FGR): 100%; remaining binding at 1 µM (STK33): 89%; remaining binding at 1 µM (SRPK2): 100%; remaining binding at 1 µM (PKAC-alpha): 98%; remaining binding at 1 µM (EPHA3): 97%; remaining binding at 1 µM (TAK1): 98%; remaining binding at 1 µM (MST3): 100%; remaining binding at 1 µM (ABL1-phosphorylated): 78%; remaining binding at 1 µM (SIK2): 98%; remaining binding at 1 µM (BRK): 100%; remaining binding at 1 µM (BLK): 30%; remaining binding at 1 µM (CLK2): 100%
